Laboratory results published in US10526280B2 (University of Pittsburgh—Of the Commonwealth System of …, priority 2014, dated 2020).
Read-outs that look alike come from different tables or passages of the source.

Key:
KCNQ2/3 channels = target: T1, KCNQ2/3 channels (Homo sapiens, UniProt O43525+O43526); assay: KCNQ2/3 currents, voltage clamp of CHO cells transiently expressing heterologous KCNQ2/3 channels; assay type: cell-based
T1 construct: expressed in transfected cells; host or cells: CHO cells, transient expression
Method: Retigabine and SF0034 at KCNQ2/3 channels. […] CHO cells transiently expressing heterologous KCNQ2/3 channels were clamped at −85 mV and KCNQ2/3 currents were measured elicited by 1 s depolarization step from −105 to +15 mV in the increment of 10 mV followed by return step to −70 mV. […] Representative current traces of KCNQ2/3 currents at increasing membrane potentials in absence and presence of 100 nM retigabine (A) and 100 nM SF0034 (C). B, D. Representative curves of normalized G-V (conductance-voltage) relationship of KCNQ2/3 currents at control and at increasing concentration of retigabine (B) and SF0034 (D). E. Summary bar graph representing half activation (V1/2) of KCNQ2/3 currents calculated from normalized G-V Boltzmann curves at control and at increasing concentration of retigabine and SF0034. […] Curves were fitted with a hill equation and EC50 values were calculated. Error bars represent mean±SEM. **p<0.01, ***p<0.001.
CHO cells transiently expressing heterologous KCNQ2/3 channels were clamped at −85 mV and KCNQ2/3 currents were measured elicited by 1 s depolarization step from −105 to +15 mV in the increment of 10 mV followed by return step to −70 mV. […] Curves were fitted with a hill equation and EC50 values were calculated. Error bars represent mean±SEM. *p<0.05, **p<0.01.
CHO cells transiently expressing heterologous KCNQ2/3 and homomeric KCNQ4 and KCNQ5 channels were clamped at −85 mV and KCNQ currents were elicited by 1 s depolarization step from −105 to +15 mV in the increment of 10 mV followed by return step to −70 mV. […] Representative current traces of KCNQ2/3 currents at increasing membrane potentials in absence and presence of 100 nM or 1 μM RL648_81. […] Representative curves of normalized G-V relationship of KCNQ2/3 currents at control and at increasing concentration of RL648_81. […] Summary bar graph representing half activation (V1/2) of KCNQ2/3 currents calculated from normalized G-V Boltzmann curves at control and at increasing concentration of RL648_81 A4. […] Curves were fitted with a hill equation and EC50 values were calculated. […] D. Summary bar graphs representing EC50 values of second generation compounds tested at KCNQ2/3 channels in comparison with SF0034.

KCNQ5 channels = target: T2, KCNQ5 channels (Homo sapiens, UniProt Q9NR82); assay: KCNQ5 currents, voltage clamp of CHO cells transiently expressing homomeric KCNQ5 channels; assay type: cell-based; conditions: 100 nM and 1 μM
T2 construct: expressed in transfected cells; host or cells: CHO cells, transient expression
Method: (§1) FIG. 7. […] CHO cells transiently expressing homomeric KCNQ4 or KCNQ5 channels were clamped at −85 mV and KCNQ currents were measured elicited by 1 s depolarization step from −105 to +15 mV in the increment of 10 mV followed by return step to −70 mV. […] B1-2. […] C1-2. […] E1-2. […] F1-2. […] H1-2. […] I1-2.
(§2) FIG. 9. […] CHO cells transiently expressing heterologous KCNQ2/3 and homomeric KCNQ4 and KCNQ5 channels were clamped at −85 mV and KCNQ currents were elicited by 1 s depolarization step from −105 to +15 mV in the increment of 10 mV followed by return step to −70 mV. A1. […] A2. […] A3. […] Curves were fitted with a hill equation and EC50 values were calculated. B1.

KCNQ4 channels = target: T3, KCNQ4 channels (Homo sapiens, UniProt P56696); assay: KCNQ4 currents, voltage clamp of CHO cells transiently expressing homomeric KCNQ4 channels; assay type: cell-based; conditions: 100 nM and 1 μM
T3 construct: expressed in transfected cells; host or cells: CHO cells, transient expression
Method: as §1, §2

[1] = hydrochloride salt; cited from earlier work
[2] = CHO cells, 100 nM-30 μM, Hill fit, mean±SEM, read-out: EC50 of half activation shift (ΔV1/2) of KCNQ2/3 currents

T1 sequence (O43526 whole entry): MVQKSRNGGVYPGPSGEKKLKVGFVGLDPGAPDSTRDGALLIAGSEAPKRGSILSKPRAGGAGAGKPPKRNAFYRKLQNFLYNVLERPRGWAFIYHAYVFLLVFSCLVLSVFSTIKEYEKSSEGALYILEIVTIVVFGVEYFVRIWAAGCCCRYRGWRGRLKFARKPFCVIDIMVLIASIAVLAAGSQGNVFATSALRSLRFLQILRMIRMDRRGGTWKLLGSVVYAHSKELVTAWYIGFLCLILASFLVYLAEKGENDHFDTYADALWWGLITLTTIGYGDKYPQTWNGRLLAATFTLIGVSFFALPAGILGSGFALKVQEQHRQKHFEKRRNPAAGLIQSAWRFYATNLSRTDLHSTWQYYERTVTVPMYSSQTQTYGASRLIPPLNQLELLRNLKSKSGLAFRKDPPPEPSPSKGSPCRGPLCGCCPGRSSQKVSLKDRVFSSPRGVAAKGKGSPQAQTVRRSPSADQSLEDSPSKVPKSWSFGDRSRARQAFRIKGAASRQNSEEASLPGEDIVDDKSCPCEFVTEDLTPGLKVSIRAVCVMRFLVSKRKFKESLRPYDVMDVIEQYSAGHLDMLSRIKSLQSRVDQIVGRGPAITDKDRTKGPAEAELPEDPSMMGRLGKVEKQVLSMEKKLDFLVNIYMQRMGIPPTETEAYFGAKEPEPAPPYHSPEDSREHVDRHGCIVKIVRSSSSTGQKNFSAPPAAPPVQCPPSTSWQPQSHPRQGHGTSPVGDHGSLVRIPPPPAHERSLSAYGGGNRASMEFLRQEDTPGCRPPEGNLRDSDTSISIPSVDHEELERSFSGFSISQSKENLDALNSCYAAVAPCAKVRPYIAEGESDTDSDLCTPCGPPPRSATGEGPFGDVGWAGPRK
T1 sequence (O43525 whole entry): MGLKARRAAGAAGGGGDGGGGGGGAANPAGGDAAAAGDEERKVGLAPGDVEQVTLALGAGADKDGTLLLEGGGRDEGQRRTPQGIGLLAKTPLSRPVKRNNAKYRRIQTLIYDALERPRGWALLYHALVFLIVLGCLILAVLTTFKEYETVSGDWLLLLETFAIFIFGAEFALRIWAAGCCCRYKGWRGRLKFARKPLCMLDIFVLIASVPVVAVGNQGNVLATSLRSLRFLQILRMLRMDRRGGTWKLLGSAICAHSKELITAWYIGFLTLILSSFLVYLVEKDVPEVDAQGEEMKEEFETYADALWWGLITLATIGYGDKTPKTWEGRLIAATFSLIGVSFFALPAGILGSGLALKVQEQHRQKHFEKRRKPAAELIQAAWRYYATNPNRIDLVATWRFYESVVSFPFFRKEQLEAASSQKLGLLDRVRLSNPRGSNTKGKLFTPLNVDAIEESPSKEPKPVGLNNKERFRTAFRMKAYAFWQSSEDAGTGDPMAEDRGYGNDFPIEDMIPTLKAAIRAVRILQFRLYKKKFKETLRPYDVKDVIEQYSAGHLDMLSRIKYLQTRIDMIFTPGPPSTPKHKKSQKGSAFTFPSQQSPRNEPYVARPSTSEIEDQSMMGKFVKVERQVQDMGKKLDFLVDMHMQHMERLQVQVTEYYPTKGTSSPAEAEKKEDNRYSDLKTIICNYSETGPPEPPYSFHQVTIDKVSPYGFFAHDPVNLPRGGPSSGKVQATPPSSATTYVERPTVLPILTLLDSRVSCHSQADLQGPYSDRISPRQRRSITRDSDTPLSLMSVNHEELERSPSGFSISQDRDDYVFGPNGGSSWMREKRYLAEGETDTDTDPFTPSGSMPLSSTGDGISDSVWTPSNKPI

Compound: CCOC(=O)Nc1ccc(NCc2ccc(C(F)(F)F)cc2)cc1N
- EC50 (KCNQ2/3 channels): 0.91 ± 0.08 µM

Compound: CCOC(=O)Nc1ccc(NCc2cccc(C(F)(F)F)c2)cc1N [NR561_50, N-[2-Amino-4-({[3-(trifluoromethyl)phenyl]methyl}amino)phenyl]ethoxycarboxamide]
- activation of KCNQ5 channel currents (KCNQ5 channels): does not activate KCNQ4 and KCNQ5 channel currents significantly
- activation of KCNQ4 channel currents (KCNQ4 channels): does not activate KCNQ4 and KCNQ5 channel currents significantly
- EC50 (KCNQ2/3 channels; [2]): 0.74 ± 0.07 µM

Compound: CC(C)OC(=O)Nc1ccc(NCc2ccc(F)cc2)cc1N [NR561_62, N-(2-Amino-4-{[(4-fluorophenyl)methyl]amino}phenyl)(methylethoxy)carboxamide]
- potency in activating KCNQ2/3 channel currents relative to SF0034 (times lower potency) (KCNQ2/3 channels; CHO cells): 2-3 times
- EC50 (KCNQ2/3 channels; [2]): 1.48 ± 0.18 µM

Compound: CCOC(=O)Nc1ccc(NCc2cccc(C(F)(F)F)c2)c(F)c1N [RL648_73, Ethyl (2-amino-3-fluoro-4-((3-(trifluoromethyl)benzyl)amino)phenyl)carbamate]
- potency in activating KCNQ2/3 channel currents relative to SF0034 (times more potent) (KCNQ2/3 channels; CHO cells): 2 times

Compound: CCOC(=O)Nc1ccc(NCc2ccc(C(F)(F)F)cc2)c(F)c1N [RL648_81, Ethyl (2-amino-3-fluoro-4-((4-(trifluoromethyl)benzyl)amino)phenyl)carbamate]
- activation of KCNQ5 channel currents (KCNQ5 channels): does not potentiate KCNQ4 and KCNQ5 channel currents significantly
- activation of KCNQ4 channel currents (KCNQ4 channels): does not potentiate KCNQ4 and KCNQ5 channel currents significantly
- potency in activating KCNQ2/3 channel currents relative to SF0034 (times more potent) (KCNQ2/3 channels; CHO cells): three times more potent than SF0034
- EC50 (KCNQ2/3 channels; [2]): 0.19 ± 0.02 µM

Compound: CCOC(=O)Nc1ccc(NCc2ccc(F)cc2)c(F)c1N [SF0034, reference compound]
- shift of half activation (V1/2) of KCNQ2/3 currents from control (KCNQ2/3 channels; 100 nM): significantly shift the V1/2
- potency in activating KCNQ2/3 channel currents relative to retigabine (times more potent) (KCNQ2/3 channels; CHO cells): five-times more potent than retigabine
- EC50 (KCNQ2/3 channels; [2]): 0.6 ± 0.06 µM

Compound: CCOC(=O)Nc1ccc(NCc2ccc(F)cc2)cc1N [retigabine, reference compound]
- solubility in aqueous solution [1]: only sparingly soluble
- EC50 (KCNQ2/3 channels): 3.3 ± 0.8 µM

Compound: Isopropyl (2-amino-3-fluoro-4-((4-fluorobenzyl)amino)phenyl)carbamate [RL648_86]
- potency in activating KCNQ2/3 channel currents relative to SF0034 (times more potent) (KCNQ2/3 channels; CHO cells): 2 times
